The text below walks through data of US10959427B2, “Attractant of ladybugs, aphid's natural enemy” (Zhejiang University, priority 2018, dated 2021).

The experiment has as its system Coccinella septempunctata. The experiment is described as follows: Wind tunnel experiment: behavioral responses of ladybugs to the attractant. The format is in vivo. To be noted: for Proportion of Knocking Filter Paper, Female Proportion / Proportion of Passing Through ½ of Wind Tunnel, Female Proportion / Proportion of Take Off, Female Proportion: female ladybugs; for Proportion of Knocking Filter Paper, Female Proportion / Proportion of Knocking Filter Paper, Male Proportion: number of insects knocking filter paper/total number of insects; for Proportion of Knocking Filter Paper, Female Proportion / Proportion of Passing Through ½ of Wind Tunnel, Female Proportion / Proportion of Take Off, Female Proportion / Proportion of Knocking Filter Paper, Male Proportion / Proportion of Passing Through ½ of Wind Tunnel, Male Proportion / Proportion of Take Off, Male Proportion: 30 min, 28° C., wind speed 0.3 m/s; for Proportion of Passing Through ½ of Wind Tunnel, Female Proportion / Proportion of Passing Through ½ of Wind Tunnel, Male Proportion: number of insects passing through ½ of wind tunnel/total number of insects; for Proportion of Take Off, Female Proportion / Proportion of Take Off, Male Proportion: number of take-off insects/total number of insects; for Proportion of Knocking Filter Paper, Male Proportion / Proportion of Passing Through ½ of Wind Tunnel, Male Proportion / Proportion of Take Off, Male Proportion: male ladybugs; for Attraction of ladybugs in the wind tunnel, result in words: summary of wind tunnel results. The protocol: (§1) Wind tunnel experiments were performed using a wind tunnel device to determine the behavioral responses of ladybugs to the attractant. The wind tunnel device is 90 cm long, 35 cm wide and 35 cm high. The desired ladybugs were put into a glass tube 30 minutes before the test, and both the ends of the glass tube were sealed with absorbent cotton to adapt the ladybugs to the environment in the wind tunnel. The filter paper-loaded compound was placed on the upper air outlet, and the wind speed in the wind tunnel was 0.3 m/s. The whole process of bioassay was carried out at 28° C. The glass tube was placed at the end of the lower air outlet of the wind tunnel. Timing started and lasted for 30 min. The numbers of take-offs, directional flights, and proximity to attractant sources were recorded and their relative proportions were calculated. The experimental method was referred to the wind tunnel experiment of Binyameen M et al (Journal of Chemical Ecology, 2013, 39(10):1273-1283).
The behavioral responses of ladybugs to the attractants in Comparative Examples 1-5 were measured by using a wind tunnel device (same conditions as in Example 1).
as §1, with “to the attractants. The wind” for “to the attractant. The wind”, “glass tube with the ladybugs was placed” for “glass tube was placed”, “min. The proportions of take-offs,” for “min. The numbers of take-offs,”, “sources were recorded.” for “sources were recorded and their relative proportions were calculated. The experimental method was referred to the wind tunnel experiment of Binyameen M et al (Journal of Chemical Ecology, 2013, 39(10):1273-1283).”
Wind tunnel experiments were performed using a wind tunnel device to determine the behavioral responses of ladybugs to the attractants of Example 3 and Comparative Examples 6-10.
Wind tunnel experiments were performed using a wind tunnel device to determine the behavioral responses of ladybugs to the attractants of Example 4 and Comparative Examples11-20.
Note: Coccinella septempunctata were used in the above wind tunnel experiments; when the Rodolia limbata, Harmonia axyridis, Propylaea japonica and Chilocorus rubidus hope were taken as the experiment objects, the results (trend) were basically the same as that of Coccinella septempunctata.

Consider `CC(C)=CCC/C(C)=C/CC/C(C)=C/CC/C=C(\C)CC/C=C(\C)CCC=C(C)C` [Comparative Example 20, squalene], for which the “Proportion of Knocking Filter Paper, Female Proportion” value came to 13.3%; the “Proportion of Passing Through ½ of Wind Tunnel, Female Proportion” value is given as 61.7%; the “Proportion of Take Off, Female Proportion” value worked out at 20%; the “Proportion of Knocking Filter Paper, Male Proportion” value was 6.7%. Besides, the “Proportion of Passing Through ½ of Wind Tunnel, Male Proportion” value (“Proportion … of Wind Tunnel, Male Proportion” below) was 66.7%; the “Proportion of Take Off, Male Proportion” value came out at 26.8%^; the “Attraction of ladybugs in the wind tunnel, result in words” value (from here on “Attraction of ladybugs”) is “number of insects knocking filter paper was significant less that the other examples”.
`CC(C)CC=O` [Comparative Example 19, isovaleraldehyde]: the “Proportion of Knocking Filter Paper, Female Proportion” value is listed as 11.7%; the “Proportion of Passing Through ½ of Wind Tunnel, Female Proportion” value was determined as 58.3%; the “Proportion of Take Off, Female Proportion” value worked out at 13.3%; the “Proportion of Knocking Filter Paper, Male Proportion” value was 15%. The “Proportion … of Wind Tunnel, Male Proportion” value stood at 56.7%; the “Proportion of Take Off, Male Proportion” value came to 10%; the “Attraction of ladybugs” value is “poor attraction to female and male ladybugs”.
On to `CCC/C=C/C(=O)O` [Comparative Example 18, trans-2-hexenoic acid], for which the “Proportion of Knocking Filter Paper, Female Proportion” value is listed as 10%; the “Proportion of Passing Through ½ of Wind Tunnel, Female Proportion” value came to 53.3%; the “Proportion of Take Off, Female Proportion” value stood at 11.7%; the “Proportion of Knocking Filter Paper, Male Proportion” value amounted to 8.3%. In addition, the “Proportion … of Wind Tunnel, Male Proportion” value turned out to be 46.7%; the “Proportion of Take Off, Male Proportion” value came out at 20%; the “Attraction of ladybugs” value is “poor attraction to female and male ladybugs”.
As to `C=CC1(C)CCC(C(=C)C)CC1C(=C)C` (stereo not shown) [Comparative Example 16, 1-vinyl-1-methyl-2,4-di (propyl-1-ene-2-yl) cyclohexane], the “Proportion of Knocking Filter Paper, Female Proportion” value came out at 0%; the “Proportion of Passing Through ½ of Wind Tunnel, Female Proportion” value is listed as 13.3%; the “Proportion of Take Off, Female Proportion” value was found to be 0%; the “Proportion of Knocking Filter Paper, Male Proportion” value came out at 11.7%. Moreover, the “Proportion … of Wind Tunnel, Male Proportion” value came out at 73.3%; the “Proportion of Take Off, Male Proportion” value was 21.7%^; the “Attraction of ladybugs” value is reported as “better effect on attracting male ladybugs but worse than Example 4”.
